For eight compounds, TGI results are on record in PubChem BioAssay (NCI).

Some test systems named below: HT29 colon; A549 NSCLC; U251 CNS; OVCAR-8 ovarian; CAKI-1 renal; NCI-H522 lung; IGROV1 ovarian; SK-OV-3 ovarian; UO-31 renal; BT-549 breast; SF-268 CNS; MOLT-4 leukemia; SNB-19 CNS; OVCAR-3 ovarian; KM12 colon; MALME-3M melanoma; MDA-MB-435; TK-10 renal; SK-MEL-28 melanoma.
Common to all, as to experiment: DTP human tumour cell line panel, 48 h

In general, TGI refers to the concentration at which net growth stops.

The structures appear in SMILES notation.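 Assay format: 96-well plates, 48-hour exposure. TGI marks complete inhibition of growth.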

Turning to `COC(=O)C(=O)c1c2ccccc2n2ccc3c4ccccc4[nH]c3c12`, the TGI in the assay on HT29 colon, in the assay with A549 NSCLC, with U251 CNS, in the assay with OVCAR-8 ovarian, with CAKI-1 renal and in the assay with NCI-H522 lung was more than 10 µM in each case. For the same compound, the TGI in the assay with IGROV1 ovarian, in the assay with SK-OV-3 ovarian, in the assay with UO-31 renal, with BT-549 breast, in the assay with SF-268 CNS and with MOLT-4 leukemia was more than 10 µM each time. For the same compound, the concentration for total growth inhibition (TGI) in the assay on SNB-19 CNS, with OVCAR-3 ovarian, with KM12 colon, with MALME-3M melanoma, with MDA-MB-435 and with TK-10 renal was more than 10 µM each time.

On to `OCC1OC(Oc2cc(O)cc(/C=C\c3ccc(O)cc3)c2)C(O)C(O)C1O` (configuration not stated), for which the TGI with HT29 colon, with A549 NSCLC, in the assay with U251 CNS, with OVCAR-8 ovarian, in the assay with CAKI-1 renal and in the assay with NCI-H522 lung was more than 100 µM in each case. Moreover, the TGI with IGROV1 ovarian, with SK-OV-3 ovarian, in the assay with UO-31 renal, in the assay with BT-549 breast, in the assay on MOLT-4 leukemia and with SNB-19 CNS was more than 100 µM each time. In addition, the TGI in the assay with OVCAR-3 ovarian, in the assay on KM12 colon, in the assay with SK-MEL-28 melanoma, with MDA-MB-435 and with TK-10 renal was more than 100 µM each time.

As for `CCc1ccc(Nc2cc(=O)[nH]c(SCc3ccccc3)n2)cc1`, the TGI with HT29 colon, in the assay with A549 NSCLC, in the assay on OVCAR-8 ovarian, in the assay with CAKI-1 renal, in the assay with NCI-H522 lung and in the assay on IGROV1 ovarian was more than 100 µM each time. In addition, the TGI in the assay with SK-OV-3 ovarian, in the assay on UO-31 renal, in the assay with BT-549 breast, in the assay on SF-268 CNS, in the assay on MOLT-4 leukemia and in the assay with SNB-19 CNS was more than 100 µM each time. Moreover, the TGI in the assay with OVCAR-3 ovarian, in the assay on KM12 colon, in the assay on MALME-3M melanoma, with MDA-MB-435 and in the assay with TK-10 renal was more than 100 µM in each case.

As to `C=C(C)CC1=C(OCC)C(OC)(OCC)C1=O` (configuration not stated), the TGI in the assay with HT29 colon, in the assay with A549 NSCLC, in the assay on U251 CNS, in the assay with OVCAR-8 ovarian, in the assay on CAKI-1 renal and in the assay with NCI-H522 lung was more than 100 µM each time. Also, the TGI in the assay with IGROV1 ovarian, with SK-OV-3 ovarian, in the assay on UO-31 renal, in the assay on BT-549 breast, in the assay with SF-268 CNS and with MOLT-4 leukemia was more than 100 µM throughout. The total growth inhibition concentration (TGI) in the assay with SNB-19 CNS, in the assay on OVCAR-3 ovarian, in the assay on KM12 colon, in the assay with SK-MEL-28 melanoma, in the assay on MDA-MB-435 and in the assay on TK-10 renal was more than 100 µM throughout.

`C=CC1ON(C)CCc2cc(OC)c(OC)cc21` (configuration not stated): the concentration for total growth inhibition (TGI) in the assay with HT29 colon, in the assay on A549 NSCLC, in the assay with U251 CNS, in the assay on OVCAR-8 ovarian, in the assay with CAKI-1 renal and with NCI-H522 lung was more than 100 µM each time. The TGI with IGROV1 ovarian, in the assay with UO-31 renal, with BT-549 breast, in the assay on SF-268 CNS, in the assay with MOLT-4 leukemia and in the assay on SNB-19 CNS was more than 100 µM each time. The TGI with OVCAR-3 ovarian, in the assay with KM12 colon, in the assay with MALME-3M melanoma, with SK-MEL-28 melanoma, with MDA-MB-435 and with TK-10 renal was more than 100 µM in each case.

For the compound `Cn1c(=O)c2c(no[n+]2[O-])n(C)c1=O`, the TGI in the assay on HT29 colon was more than 100 µM; in the assay on A549 NSCLC it was more than 100 µM; in the assay with U251 CNS, 49.4 µM; in the assay on OVCAR-8 ovarian it was 37 µM; in the assay with CAKI-1 renal, 35.2 µM; with NCI-H522 lung, 30 µM. Besides, the TGI with IGROV1 ovarian is 58.7 µM; in the assay on SK-OV-3 ovarian it was more than 100 µM; in the assay with UO-31 renal, 97.1 µM; in the assay with BT-549 breast, 51.9 µM; in the assay with SF-268 CNS, 55.7 µM; in the assay with MOLT-4 leukemia it was more than 100 µM. The TGI in the assay on SNB-19 CNS was 64.8 µM; with OVCAR-3 ovarian it was more than 100 µM; in the assay with KM12 colon, more than 100 µM; in the assay with MALME-3M melanoma it was 40 µM; in the assay on MDA-MB-435, 38.3 µM; with TK-10 renal, 60.7 µM.

Regarding `CCOC(=O)C(NC(=O)c1ccccc1)(Nc1ccc(S(=O)(=O)Nc2nc(C)cc(C)n2)cc1)C(F)(F)F` (configuration not stated), the TGI in the assay on HT29 colon, in the assay on A549 NSCLC, in the assay on U251 CNS, in the assay with OVCAR-8 ovarian, in the assay with CAKI-1 renal and in the assay with IGROV1 ovarian was more than 100 µM throughout. Moreover, the total growth inhibition concentration (TGI) in the assay on SK-OV-3 ovarian, in the assay with UO-31 renal, in the assay on BT-549 breast, in the assay on SF-268 CNS, in the assay on MOLT-4 leukemia and in the assay on SNB-19 CNS was more than 100 µM in each case. Besides, the TGI with OVCAR-3 ovarian, with KM12 colon, with MALME-3M melanoma, in the assay on SK-MEL-28 melanoma, in the assay with MDA-MB-435 and in the assay with TK-10 renal was more than 100 µM throughout.

`CC(=O)OCCCCn1cnc2nc(Nc3ccccc3)nc(Cl)c21`: the TGI was more than 100 µM in the assay with HT29 colon; more than 100 µM with A549 NSCLC; more than 100 µM with U251 CNS; more than 100 µM with OVCAR-8 ovarian; 81.4 µM in the assay on CAKI-1 renal; more than 100 µM in the assay on IGROV1 ovarian. Further, the TGI in the assay on SK-OV-3 ovarian, in the assay with UO-31 renal, in the assay with BT-549 breast, with SF-268 CNS, with MOLT-4 leukemia and with SNB-19 CNS was more than 100 µM in each case. The TGI in the assay on OVCAR-3 ovarian, in the assay on KM12 colon, in the assay with MALME-3M melanoma, in the assay on SK-MEL-28 melanoma, in the assay on MDA-MB-435 and in the assay with TK-10 renal was more than 100 µM in each case.
